Columns and labels:
[1] = mice, oral, 3 mg/Kg, serum; read-out: Cmax (maximum concentration); cited from earlier work
[2] = LMI070 pharmacokinetics in mice, oral; assay type: in vivo; details: 3 mg/Kg
HEK293 cells = test: De novo exon splicing in response to LMI070, RNA-seq and PCR validation; assay type: cell-based, human; details: LMI070 25 nM, PCR
Procedure: The following methods were used to obtain the data illustrated in FIGS. 8-15. […] 12 hours after treatment RNA was extracted using Trizol followed by DNAseI treatment. Samples were evaluated for quality control on agilent bioanalyzer and all samples had RIN values >9.8 and were sent for Illumina RiboZero Gold total RNA library preparation and sequencing with an Illumina HiSeq4000. A 150 bp Pair end sequencing reads were obtained from illumina sequencing. Fastq files obtained from the illumina platform were aligned to the Human genome GRCh38 using the STAR aligner. SAM format alignment files output from STAR were sorted, converted to BAM format and indexed using Samtools. To visualize splicing at any region in the alignment BAM files were opened in IGV and visualized using the Sashimi plot function.
To identify regions of interest which contained high levels of differential splicing a custom R program was created. […] These files contained the raw counts obtained at each splice junction as calculated during alignment by STAR. […] 1) Read input files into R. 2) Create unique position IDs for each row (splice site) in the dataset. […] 6) sort the extracted reads from highest to lowest by Mean counts value. […]
The following methods were used to obtain the data in FIG. 16. […] As observed on the PCR, PCR products of higher size were detected on samples treated with LM1070 (FIG. 16). […]

SMN mouse model = details: cited from earlier work
SMN2 exon 7 [3] = details: mouse brain; cited from earlier work
SMN2 exon 7 [4] = test: SMN2/transactivator minigene exon 7 splicing, semi-quantitative RT-PCR; assay type: cell-based, human
Excerpt: FIGS. 4a-c show modified SMN2/transactivator minigenes express spliced RNA transcript isoforms to constitutively exclude (CSI3) or include (CSI5) exon7, influencing background expression of the optimized RNAi promoter. […] The 3′ and 5′ Exon7 splicing sites in the SMN2/transactivator minigene were modified to constitutively exclude (CSI3, 3′ modified) or include (CSI5, 5′ modified) exon 7.
FIGS. 5a-b show splicing and activity of CSI and CSI3 minigenes in response to LIM070.
To regulate transactivator expression, the transactivator was cloned downstream of a self-cleaving 2A peptide and the SMN2 minigene comprising exons 6-7 and the 5′ end of exon 8, and minimal intronic intervening sequences necessary to recapitulate SMN2 splicing^38 (FIG. 4a). Note that 10% of the transcripts include exon 7, similar to the native SMN2 genetic state. The transcripts produce transactivator that partially activates the RNAi expression cassette. Thus, the 3′ and 5′ Exon7 splicing sites in the SMN2/transactivator minigene were modified to constitutively exclude (CSI3, 3′ modified) or include (CSI5, 5′ modified) exon 7, which minimizes RNAi promoter background activation^39 (FIGS. 4b-c). […] Also, the entire cassette fits into rAAV.

Cas9 = test: SMN2_CRISPRi regulated Cas9 expression, Western blot; assay type: cell-based, human; details: RG7800 1 μM, HEK293 cells transfected with the SMN2_CRISPRi system
Procedure: (§1) HEK293 cells were transfected with plasmids encoding the CRISPRi silencing system (dCas9, sgRNA and MCP-Krab expression cassettes). Importantly, the dCas9 was cloned under the SMN2 splice regulated cassette to control dCas9 protein expression with RG7800. 24 hours after transfection, cells were selected using Puromicin (3 μM, 24 h), passaged onto a new plate, and treated with RG7800 (1 μM). HEK293 cells were lysed 36 h after RG7800 treatment using Passive lysis buffer (Promega, CA), and Huntingtin (HTT), Cas9 and Beta Catenin (Beta cat) protein levels were determined by Western Blot. Beta Catenin protein levels were determined as loading control. HTT, Cas9 and Beta Cat protein levels were quantified using the ChemiDoc Imaging System (Bio-Rad) and Imagine Lab analysis Software.

HTT = test: SMN2_CRISPRi regulated epigenetic silencing, Western blot; assay type: cell-based, human; details: RG7800 1 μM, HEK293 cells transfected with the SMN2_CRISPRi system
Procedure: as §1

SMN2 minigene Exon 7 = test: SMN2 minigene PCR splicing assay with RG7800; assay type: cell-based, human; details: RG7800 10 nM, 100 nM, 1 μM and 10 μM; HEK293
Procedure: HEK293 cells were transfected with plasmids expressing the SMN2 minigene (0.3 μg) and 4 hours later treated with different doses of RG7800 (10 nM, 100 nM, 1 μM and 10 μM). 24 hours after transfection, RNA was harvested, DNAseI treated, and 1 μg of RNA was reverse transcribed to assess SMN2 minigene splicing using PCR. PCR products were separated on a 3% agarose gel and exon 7 production was quantified using the ChemiDoc Imaging System (Bio-Rad) and Imagine Lab analysis Software.

CC1(C)CC(Oc2ccc(-c3ccc(-c4cn[nH]c4)cc3O)nn2)CC(C)(C)N1 [LMI070]
Cmax [1]: 86 nM
concentration in the brain [2]: 120 nM
de novo exon splicing (HEK293 cells): novel exons are included
minimal dose with therapeutic effects (SMN mouse model): 1 mg/kg
maximum dose reported to increase SMN2 exon 7 inclusion (SMN2 exon 7 [3]): 30 mg/kg
exon 7 inclusion at brain-equivalent concentration (SMN2 exon 7 [4]; 120 nM, CSI and CSI3 minigenes (FIG. 5)): induces exon 7 inclusion
exon 7 inclusion in response to LMI070 (SMN2 exon 7 [4]; HEK293 cells, CSI and CSI3 minigenes, 20 h after LMI070 treatment): dose-responsive

CCc1nc(C)cn2nc(-c3cc(=O)n4cc(C5CCN(C)CC5)cc(C)c4n3)cc12 [RG7800]
Cas9 protein levels (Cas9): increase
HTT expression levels reduced (HTT): about 45%
Exon 7 inclusion in the SMN2 minigene (SMN2 minigene Exon 7): induction of Exon 7 inclusion

Source: patent publication US20210355509A1, “ALTERNATIVE SPLICING REGULATION OF GENE EXPRESSION AND THERAPEUTIC METHODS” (THE CHILDREN'S HOSPITAL OF PHILADELPHIA, priority 2018, published 2021)
